# Measured values reported in patent EP4741383A1, “COMPOUND AND USE THEREOF AS ANTI-CANCER DRUG” (Tyligand Bioscience (Shanghai) Limited, priority 2023, dated 2025).
# Molecular target: T1, SHP2 enzyme (catalytic domain, amino acid sequence 224-528) (Homo sapiens, UniProt Q06124)
# T1 construct: purchased GenScript
# T1 sequence (Q06124 224-528): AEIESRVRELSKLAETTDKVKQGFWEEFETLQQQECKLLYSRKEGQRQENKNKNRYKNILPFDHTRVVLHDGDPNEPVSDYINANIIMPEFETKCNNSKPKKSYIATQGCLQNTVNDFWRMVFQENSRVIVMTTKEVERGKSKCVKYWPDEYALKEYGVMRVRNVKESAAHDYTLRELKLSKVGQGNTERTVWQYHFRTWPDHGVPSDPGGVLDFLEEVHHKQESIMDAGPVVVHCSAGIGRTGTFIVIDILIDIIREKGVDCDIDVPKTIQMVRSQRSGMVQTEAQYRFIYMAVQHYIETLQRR
# Assay: SHP2 enzyme inhibition assay (DiFMUP substrate, fluorescence)
# Type: biochemical
# Conditions: not given
# Method: This experiment evaluates the inhibitory effect of the test compounds on SHP2 enzyme activity by detecting the reaction between the human recombinant protein SHP2 enzyme and the substrate.
# The stock solutions of the reaction buffer components were thawed and mixed homogeneously at room temperature, to prepare the reaction buffer (55 mM HEPES pH = 7.2 (Sigma, Cat. No. #PHR1428), 100 mM NaCl (Beyotime, Cat. No. #ST374, 5 M solution), 0.5 mM EDTA (Beyotime, Cat. No. #ST066), 1 mM DL-Dithiothreitol (DTT) (Sigma, Cat. No. #D9779), 0.002% BSA (Solarbio, Cat. No. #A8010), 0.001% Brij35 (Brij® L23 solution (Brij35) (Sigma, Cat. No. #B4184)). The SHP2 enzyme (catalytic domain, amino acid sequence 224-528, expressed and purified by GenScript) was thawed slowly on ice. 1 µL of this solution (1.37 mg/mL) was added to 386 µL of the reaction buffer to dilute it to 100 nM. Then, 120 µL of the 100 nM SHP2 enzyme solution was added to 2880 µL of reaction buffer to prepare a 4 nM SHP2 enzyme working solution. The test compounds and the specific inhibitor of SHP2 (11a-1, used as a positive control, Zeng, L. et al., J. Med. Chem. 2014, 57, 6594-6609) were prepared as 10 mM DMSO solutions. 10 µL of the 10 mM compound solution was mixed with 20 µL of DMSO solution, and then serially diluted 3-fold, resulting in 10 concentrations. 1 µL of the serially diluted solution was mixed with 99 µL of reaction buffer to obtain a 10-fold diluted compound working solution.
# A 96-well black half-area microplate (Greiner, catalog #675076) was used. 25 µL of 4 nM SHP2 enzyme working solution and 5 µL of 10x compound working solution were added to each well and incubated at room temperature for 30 minutes. 15 µL of DiFMUP substrate (Thermo Fisher Scientific, catalog #D6567) was added to 2985 µL of reaction buffer to prepare a 50 µM substrate working solution. After incubation of the compounds and SHP2 enzyme, 20 µL of the 50 µM substrate working solution was added to each well and incubated at room temperature for 5 minutes. The plate was then read on a multi-mode microplate reader (BioTek, Synergy H1) at 340 nm/450 nm fluorescence.
# Data were analyzed using GraphPad Prism 9.0 software. A non-linear S-curve regression dose-response-inhibition equation was used to fit the data and generate the dose-response curve, from which the IC50 value was calculated. [formula]
row,Structure (SMILES),IC50 [nM]
1,O=C(Nc1ccc(-c2cc3cc(F)c(-c4nnn[nH]4)cc3n2C2CCC2)cc1)C(=O)Nc1ccc(N2CC(CCO)C2)cc1 [Example 9],87

# Same assay, conditions: SHP2 catalytic domain, DiFMUP substrate, 30 min pre-incubation; read-out: S HP2 I C50
row,Structure (SMILES),IC50 [nM]
1,O=C(Nc1ccc(-c2cc3cc(F)c(-c4nnn[nH]4)cc3n2C2CCC2)cc1)C(=O)Nc1ccc(N2CCOC3(CC3)C2)cc1 [Example 50],113
2,N#CC1CCN(c2ccc(NC(=O)C(=O)Nc3ccc(-c4cc5cc(F)c(-c6nnn[nH]6)cc5n4C4CCC4)cc3)cc2)CC1 [Example 22],38
3,CC(C)(O)C1CCN(c2ccc(NC(=O)C(=O)Nc3ccc(-c4cc5cc(F)c(-c6nnn[nH]6)cc5n4C4(C)CC4)cc3)cc2)CC1 [Example 35],174
4,CC1(CO)CCN(c2ccc(NC(=O)C(=O)Nc3ccc(-c4cc5cc(F)c(-c6nnn[nH]6)cc5n4C4(C)CC4)cc3)cc2)CC1 [Example 42],179
5,O=C(Nc1ccc(-c2cc3cc(F)c(-c4nnn[nH]4)cc3n2C2CCC2)cc1)C(=O)Nc1ccc(N2CCC(F)(CO)CC2)cc1 [Example 45],55
6,CC(C)(O)C1CCN(c2ccc(NC(=O)C(=O)Nc3ccc(-c4cc5cc(F)c(-c6nnn[nH]6)cc5n4CC(F)(F)F)cc3)cc2)CC1 [Example 39],43
7,CC(O)C1CCN(c2ccc(NC(=O)C(=O)Nc3ccc(-c4cc5cc(F)c(-c6nnn[nH]6)cc5n4C4CCC4)cc3)cc2)C1 (centres unmarked) [Example 15],183
8,CC(C)(O)CCC1CCN(c2ccc(NC(=O)C(=O)Nc3ccc(-c4cc5cc(F)c(-c6nnn[nH]6)cc5n4C4CCC4)cc3)cc2)CC1 [Example 28],92
9,O=C(Nc1ccc(-c2cc3cc(F)c(-c4nnn[nH]4)c(F)c3n2C2CCC2)cc1)C(=O)Nc1ccc(N2CCC3(CCOC3)CC2)cc1 [Example 126],23
10,CC1CN(c2ccc(NC(=O)C(=O)Nc3ccc(-c4cc5cc(F)c(-c6nnn[nH]6)cc5n4C4CCC4)cc3)cc2)CC1CO (centres unmarked) [Example 18],74
11,O=C(Nc1ccc(-c2cc3cc(F)c(-c4nnn[nH]4)cc3n2CC2CC2)cc1)C(=O)Nc1ccc(N2CCC3(CCOC3)CC2)cc1 [Example 72],46
12,O=C(Nc1ccc(-c2cc3cc(F)c(-c4nnn[nH]4)cc3n2C23CC(C2)C3)cc1)C(=O)Nc1ccc(N2CCC3(CCOC3)CC2)cc1 [Example 71],50
13,CCC1CN(c2ccc(NC(=O)C(=O)Nc3ccc(-c4cc5cc(F)c(-c6nnn[nH]6)cc5n4C4CCC4)cc3)cc2)CCO1 (centres unmarked) [Example 48],50
14,CC1(n2c(-c3ccc(NC(=O)C(=O)Nc4ccc(N5CC6(CCCOC6)C5)cc4)cc3)cc3cc(F)c(-c4nnn[nH]4)cc32)CCC1 [Example 56],74
15,O=C(Nc1ccc(-c2ccsc2)cc1)C(=O)Nc1ccc(-c2cc3cc(O)c(-c4nnn[nH]4)cc3n2C2CCC2)cc1 [Example 3],278
16,CC1(O)CCC2(CC1)CN(c1ccc(NC(=O)C(=O)Nc3ccc(-c4cc5cc(F)c(-c6nnn[nH]6)cc5n4C4(C)CCC4)cc3)cc1)C2 [Example 84],60
17,O=C(Nc1ccc(-c2cc3cc(F)c(-c4nnn[nH]4)cc3n2C2CCC2)cc1)C(=O)Nc1ccc(N2CC3(CCC(O)CC3)C2)cc1 [Example 81],70
18,O=C(Nc1ccc(-c2cc3cc(F)c(-c4nnn[nH]4)cc3n2C2CCC2)cc1)C(=O)Nc1ccc(N2CC3CC2CO3)cc1 (centres unmarked) [Example 49],133
19,CC1(C#N)CCN(c2ccc(NC(=O)C(=O)Nc3ccc(-c4cc5cc(F)c(-c6nnn[nH]6)cc5n4C4CCC4)cc3)cc2)C1 (centres unmarked) [Example 11],30
20,CC1(n2c(-c3ccc(NC(=O)C(=O)Nc4ccc(N5CCC(CO)CC5)cc4)cc3)cc3cc(F)c(-c4nnn[nH]4)cc32)CCC1 [Example 24],271
21,O=C(Nc1ccc(-c2cc3cc(F)c(-c4nnn[nH]4)cc3n2C2CCC2)cc1)C(=O)Nc1ccc(N2CCC3(CCCCO3)CC2)cc1 [Example 73],48
22,O=C(Nc1ccc(-c2ccsc2)cc1)C(=O)Nc1ccc(-c2cc3ccc(-c4cnn[nH]4)cc3n2C2CCC2)cc1 [Example 121],> 10000

row,Structure (SMILES),IC50 [nM]
1,O=C(Nc1ccc(C2=CCOCC2)cc1)C(=O)Nc1ccc(-c2cc3cc(F)c(-c4nnn[nH]4)cc3n2C2CCC2)cc1 [Example 52],102
2,O=C(Nc1ccc(N2CCC3(CCOC3)CC2)cc1)C(=O)NC1CCN(c2cc3cc(F)c(-c4nnn[nH]4)cc3n2C2CCC2)CC1 [Example 66],291
3,O=C(Nc1ccc(-c2cc3cc(F)c(-c4nnn[nH]4)cc3n2C2CCC2)cc1)C(=O)Nc1ccc(N2CCC3(CCC(CO)CC3)CC2)cc1 [Example 112],105
4,CC(C)(O)C1CCC2(CC1)CN(c1ccc(NC(=O)C(=O)Nc3ccc(-c4cc5cc(F)c(-c6nnn[nH]6)cc5n4C4CCC4)cc3)cc1)C2 [Example 87],89
5,CCC1(CO)CCN(c2ccc(NC(=O)C(=O)Nc3ccc(-c4cc5cc(F)c(-c6nnn[nH]6)cc5n4C4CCC4)cc3)cc2)CC1 [Example 43],52
6,O=C(Nc1ccc(N2CCC3(CCOC3)CC2)cc1)C(=O)NC12CC(c3cc4cc(F)c(-c5nnn[nH]5)cc4n3C3CCC3)(C1)C2 [Example 65],198
7,CC(C)(O)C1CCN(c2ccc(NC(=O)C(=O)Nc3ccc(-c4cc5cc(F)c(-c6nnn[nH]6)cc5n4CC4CC4)cc3)cc2)CC1 [Example 37],44
8,O=C(Nc1ccc(-c2ccsc2)cc1)C(=O)Nc1ccc(-c2cc3cc(Cl)c(-c4nnn[nH]4)cc3n2C2CCC2)cc1 [Example 5],105
9,CC1(C)CN(c2ccc(NC(=O)C(=O)Nc3ccc(-c4cc5cc(F)c(-c6nnn[nH]6)cc5n4C4CCC4)cc3)cc2)CC1CO (centres unmarked) [Example 19],152
10,O=C(Nc1ccc(C2=CCOC2)cc1)C(=O)Nc1ccc(-c2cc3cc(F)c(-c4nnn[nH]4)cc3n2C2CCC2)cc1 [Example 51],57
11,O=C(Nc1ccc(-c2cc3cc(F)c(-c4nnn[nH]4)cc3n2C2CCC2)cc1)C(=O)Nc1ccc(N2CC3(CCC(O)C3)C2)cc1 (centres unmarked) [Example 79],108
12,CC1(n2c(-c3ccc(NC(=O)C(=O)Nc4ccc(N5CCC6(CC(O)C6)C5)cc4)cc3)cc3cc(F)c(-c4nnn[nH]4)cc32)CCC1 (centres unmarked) [Example 90],139
13,O=C(Nc1ccc(-c2cc3cc(F)c(-c4nnn[nH]4)cc3n2C2CCC2)cc1)C(=O)Nc1ccc(N2CC3(C2)CC(O)(C(F)(F)F)C3)cc1 [Example 78],74
14,O=C(Nc1ccc(-c2cc3cc(F)c(-c4nnn[nH]4)cc3n2C2CCC2)cc1)C(=O)Nc1ccc(N2CC(CO)C2)cc1 [Example 8],130
15,CC1(n2c(-c3ccc(NC(=O)C(=O)Nc4ccc(N5CCC(C6COC6)CC5)cc4)cc3)cc3cc(F)c(-c4nnn[nH]4)cc32)CCC1 [Example 21],68
16,CC(C)(O)C1CCC2(CC1)CN(c1ccc(NC(=O)C(=O)Nc3ccc(-c4cc5cc(F)c(-c6nnn[nH]6)cc5n4C4(C)CCC4)cc3)cc1)C2 [Example 88],148
17,CC1(CO)CCN(c2ccc(NC(=O)C(=O)Nc3ccc(-c4cc5cc(F)c(-c6nnn[nH]6)cc5n4C4(C)CCC4)cc3)cc2)CC1 [Example 41],63
18,O=C(Nc1ccc(N2CCC3(CCOC3)CC2)cc1)C(=O)NC1CC=C(c2cc3cc(F)c(-c4nnn[nH]4)cc3n2C2CC2)CC1 (centres unmarked) [Example 64],88
19,O=C(Nc1ccc(-c2cc3cc(F)c(-c4nnn[nH]4)cc3n2C2CCC2)cc1)C(=O)Nc1ccc(N2CCC3(CCCO3)C2)cc1 (centres unmarked) [Example 60],64
20,CC1(O)CCC2(CCN(c3ccc(NC(=O)C(=O)Nc4ccc(-c5cc6cc(F)c(-c7nnn[nH]7)cc6n5C5(C)CCC5)cc4)cc3)CC2)C1 (centres unmarked) [Example 105],86
21,O=C(Nc1ccc(-c2cc3cc(F)c(-c4nnn[nH]4)cc3n2C2CCC2)cc1)C(=O)Nc1ccc(N2CC3(CCOC3)C2)cc1 [Example 54],69
22,O=C(Nc1ccc(-c2cc3cc(F)c(-c4nnn[nH]4)cc3n2C2CCC2)cc1)C(=O)Nc1ccc(N2CC3(COC3)C2)cc1 [Example 53],64

# Same assay, conditions: relative to 11a-1, IC50 = 0.108 µM
row,Structure (SMILES),SHP2 IC50 times lower than control compound 11a-1
1,N#CC1CCN(c2ccc(NC(=O)C(=O)Nc3ccc(-c4cc5cc(F)c(-c6nnn[nH]6)cc5n4C4CCC4)cc3)cc2)CC1 [Example 22],3-4 times
2,CC1(C#N)CCN(c2ccc(NC(=O)C(=O)Nc3ccc(-c4cc5cc(F)c(-c6nnn[nH]6)cc5n4C4CCC4)cc3)cc2)C1 (centres unmarked) [Example 11],3-4 times
